{"source": "patent US4093715A", "about": "“5-Iodo-5'-amino-2',5'-dideoxycytidine and the pharmaceutically acceptable salts thereof” (priority 1977, dated 1978)", "key": {"[1]": {"test_system": "experimental herpes simplex keratitis", "experiment": "Treatment of experimental herpes simplex keratitis in rabbits", "type": "in vivo", "details": "topical drops 4 mg/ml at 4 hour intervals for 72 hours starting 24 hours after infection, graded daily for 11 days", "description": "One advantage of AIC has been established by the treatment of rabbits. In this study, experimental herpes simplex keratitis was established bilaterally in 16 rabbits. These were divided into 2 matched groups of 8. Each group was treated in a double blind fashion with topical drops at 4 hour intervals for 72 hours starting 24 hours after infection. The solutions administered were:\n2. AIC, 4 mg/ml Each eye was examined daily for 11 days and graded by two ophthalmologists."}, "mice": {"test_system": "mice", "experiment": "Acute toxicity in mice", "type": "in vivo", "details": "for lethality, acute toxicity: mice", "description": "Acute toxicity of AIC in mice indicates no lethality at 200 mg/kg of body weight. However, at a level as high as 400 mg/kg the compound is lethal to mice."}, "Vero cells": {"test_system": "Vero cells", "experiment": "Cytotoxicity", "type": "cell-based", "description": "(§1) Standard procedures were used to maintain the virus and the Vero cells. This included growth and titration by plaque assay as well as the replications of the virus in the presence of the test compounds. Cells were maintained and infected in Dulbecco's medium with 10% fetal calf serum."}, "[2]": {"test_system": "herpes simplex virus strain HSV-1 (prototype)", "experiment": "Inhibition of herpes simplex virus replication (titre reduction by plaque assay) in infected Vero cells", "type": "cell-based, herpes simplex virus type 1", "description": "The compounds of this invention manifest a high order to inhibition with various herpes simplex viruses. For example, when tested against strain HSV-1 (prototype) at a concentration of 400 μM the average log reduction in titre was 1.4.\nas §1\nFor testing, the cells were infected with virus at a ratio of approximately 10 plaque forming units per cell. The viral inoculum was drained after one hour adsorption at 37° C. An appropriate volume of medium containing the compound for testing was added. After 36-48 hours at 37° C, the infected cells were frozen until ready for titration."}, "newborn rats": {"test_system": "newborn rats", "details": "systemic administration; cited from earlier work"}, "pregnant rabbits": {"test_system": "pregnant rabbits", "details": "topically to the eye, doses similar to those used clinically in humans; cited from earlier work"}, "[3]": {"details": "cited from earlier work"}}, "data": [{"compound": "NC[C@H]1O[C@@H](n2cc(I)c(N)nc2=O)C[C@@H]1O", "note": "[AIC, 5-Iodo-5'-amino-2',5'-dideoxycytidine]", "values": [{"measurement": "therapeutic effectiveness in herpes simplex keratitis", "setting": "[1]", "value": "effective therapeutically"}, {"measurement": "lethality, acute toxicity", "setting": "mice; 200 mg/kg of body weight", "value": "no lethality"}, {"measurement": "lethality, acute toxicity", "setting": "mice; 400 mg/kg", "value": "lethal"}, {"measurement": "therapeutic index (in words)", "setting": "mice; from acute toxicity in mice coupled with activity", "value": "good therapeutic index"}, {"measurement": "cytotoxicity", "setting": "Vero cells; at treatment levels as high as 1600 μM", "value": "No cytotoxicity is evident"}, {"measurement": "log reduction at 400 µM", "setting": "[2]; Human alphaherpesvirus 1, HSV-1 (prototype), 400 μM, infected Vero cells, ~10 pfu per cell, 36-48 hours at 37° C", "value": 1.4}]}, {"compound": "O=c1[nH]c(=O)n([C@H]2C[C@H](O)[C@@H](CO)O2)cc1I", "note": "[idoxuridine, 5-iodo-deoxy-uridine]", "values": [{"measurement": "teratogenicity", "setting": "newborn rats", "value": "teratogenicity"}, {"measurement": "teratogenicity", "setting": "pregnant rabbits", "value": "teratogenicity"}, {"measurement": "undesirable side effects", "setting": "[3]; ocular use in herpes simplex keratitis", "value": "follicular and papillary conjunctivitis, and epithelial punctate keratopathy"}, {"measurement": "cellular toxicity", "setting": "[3]; therapy of herpes simplex keratitis", "value": "significant cellular toxicity"}, {"measurement": "cytotoxicity", "setting": "Vero cells; at a concentration of 50 μM", "value": "almost totally cytotoxic"}, {"measurement": "antiviral activity (in words)", "setting": "[2]; at relatively low levels", "value": "high order of activity"}]}]}
